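Dose response: 5 concentrations. Exposure: 48 h. Format: 96-well plates. Endpoint: linear interpolation; highest concentration if not reached. GI50 is the concentration that inhibits growth by half. TGI is the concentration that stops growth completely.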
Experiments:
Test in all cases: NCI anticancer screen, dose series, 48 h; in the data active = GI50 below about 0.43 µM; inactive = the rest
[1] = system: OVCAR-5 ovarian
[2] = system: CAKI-1 renal
[3] = system: ACHN renal
[4] = system: SF-268 CNS
[5] = system: SN12C renal
[6] = system: SK-OV-3 ovarian
[7] = system: HOP-62 NSCLC
[8] = system: TK-10 renal
[9] = system: IGROV1 ovarian
[10] = system: PC-3 prostate
[11] = system: RXF 393 renal
[12] = system: SK-MEL-5 melanoma
[13] = system: LOX IMVI melanoma
[14] = system: A549 NSCLC
[15] = system: SNB-75 CNS
[16] = system: HCC-2998 colon
[17] = system: EKVX NSCLC
[18] = system: RPMI-8226 leukemia
[19] = system: MOLT-4 leukemia
[20] = system: SK-MEL-2 melanoma
[21] = system: HS 578T breast
[22] = system: OVCAR-3 ovarian
[23] = system: NCI-H226 lung
[24] = system: MDA-MB-435
[25] = system: NCI-H522 lung
[26] = system: MCF7 breast
[27] = system: UACC-62 melanoma
[28] = system: SK-MEL-28 melanoma

Cc1nc(-c2cc3ccccc3oc2=O)ccc1C(=O)/C=C/c1ccccn1
inactive: GI50 [1] > 100 µM | GI50 [2] > 100 µM | GI50 [3] > 100 µM | GI50 [4] > 100 µM | GI50 [5] > 100 µM | GI50 [6] > 100 µM | GI50 [7] > 100 µM | GI50 [8] > 100 µM | GI50 [9] > 100 µM | GI50 [10] > 100 µM | GI50 [11] > 100 µM | GI50 [12] > 100 µM | GI50 [13] 3.2 µM | GI50 [14] > 100 µM | GI50 [15] > 100 µM | GI50 [16] > 100 µM | GI50 [17] > 100 µM | GI50 [18] 3.41 µM | GI50 [19] > 100 µM | GI50 [20] > 100 µM | GI50 [21] > 100 µM | GI50 [22] > 100 µM | GI50 [23] > 100 µM | GI50 [24] > 100 µM | GI50 [25] > 100 µM | GI50 [26] 3.72 µM | GI50 [27] > 100 µM | GI50 [28] > 100 µM
> 100 µM: TGI [1] | TGI [2] | TGI [3] | TGI [4] | TGI [5] | TGI [6] | TGI [7] | TGI [8] | TGI [9] | TGI [10] | TGI [11] | TGI [12] | TGI [13] | TGI [14] | TGI [15] | TGI [16] | TGI [17] | TGI [18] | TGI [19] | TGI [20] | TGI [21] | TGI [22] | TGI [23] | TGI [24] | TGI [25] | TGI [26] | TGI [27] | TGI [28]

From PubChem BioAssay (NCI)
